This is an account of results in patent publication US20210253598A1, “ARYL ANNULATED MACROCYCLIC INDOLE DERIVATIVES” (priority 2017, published 2021).

For one data set, the target named is MCL-1 (Homo sapiens, UniProt Q07820, K194A/K197A/R201A). Kind of data set: Protein-protein interaction assay MCL-1/Noxa BH3 peptide, TR-FRET (MCL-1 assay, Assay 1). Type of data set: binding. Particulars: MCL-1 Assay [M] (median), MBP-MCL-1 / Noxa BH3 peptide. Put shortly: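 TR-FRET competition between compounds and a biotin-PEG Noxa BH3 tracer for 1 nM MBP-MCL-1 (residues 173-321). Incubation was 1 h at 22 °C in the dark, then overnight at 4 °C, in 50 mM Tris pH 7 buffer with KF and DTT, after a 10-min compound pre-equilibration. Normalized ratios were fitted with a 4-parameter Hill equation to give IC50.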
MCL-1, sequence (Q07820 173-321 K194A/K197A/R201A, looked up): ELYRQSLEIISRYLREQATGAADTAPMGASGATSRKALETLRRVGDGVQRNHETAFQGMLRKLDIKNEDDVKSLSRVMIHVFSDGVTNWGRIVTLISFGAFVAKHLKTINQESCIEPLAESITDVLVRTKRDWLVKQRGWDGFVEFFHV
Background: Time-resolved FRET reads energy transfer from a long-lived donor to a nearby acceptor.

For data set [1], the system named is SUDHL5. Kind of data set: Induction of caspase-3/7 activity in SUDHL5 cells (Assay 4). Type of data set: cell-based. An outline of the steps: (§1)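 Luminescent Caspase-Glo 3/7 read-out in SUDHL5 and SUDHL10 cells after 3 h compound exposure at 37 °C, followed by 1 h reagent incubation.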
Data set [2] relates to SUDHL10. Briefly: Induction of caspase-3/7 activity in SUDHL10 cells (Assay 4). It counts as cell-based. An outline of the steps: as §1
Data set [3] has as its system SUDHL5. Kind of data set: Induction of cytotoxicity in SUDHL5 cells, CellTiter-Glo (Assay 6). Type of data set: cell-based. Conditions: SUDHL5, 5 hours incubation, median, read-out: Cytotox SUDHL5 [M] (median). An outline of the steps:
(§2)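 Luminescent ATP readout (CellTiter-Glo, 15 min at room temperature) quantifies cytotoxicity after a 5 h compound exposure at 37 °C.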
(In general: In ATP-based viability assays light output follows the ATP content of the culture.)

The subject of data set [4] is SUDHL10. Kind of data set: Induction of cytotoxicity in SUDHL10 cells, CellTiter-Glo (Assay 6). Type of data set: cell-based. Particulars: SUDHL10, 5 hours incubation, median, read-out: Cytotox SUDHL10 [M] (median). An outline of the steps:
as §2

Data set [5] relates to SUDHL5. Briefly: Anti-proliferative effect in SUDHL5 cells, CellTiter-Glo (Assay 7). It counts as cell-based. An outline of the steps:
(§3)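 72 h CTG viability assay, 37 °C, humidified. Time-zero plate as baseline; IC50 vs day 0 and DMSO controls.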

A further data set has as its system MV-4-11. Kind of data set: Anti-proliferative effect in MV-4-11 cells, CellTiter-Glo (Assay 7). Type of data set: cell-based. Conditions: several values per example. An outline of the steps: as §3
The subject of a further data set is AMO-1. Briefly: Anti-proliferative effect in AMO-1 cells, CellTiter-Glo (Assay 7). Type of data set: cell-based. Here is the method: (§4) Assessment of the Anti-Proliferative Effect of Compounds in Different Cell Lines
(§5) The impact of compounds on the proliferation of different cell lines was assessed using the CellTiter-Glo® Luminescent Cell Viability reagent from Promega (G7573).
(§6) In parallel, cells were plated in a reference (day 0) plate for time zero determination. Cells were incubated in a humidified incubator at 37° C. overnight.
(§7) Rim wells were excluded. The cells were incubated for 72 hours in a humidified incubator at 37° C. The day 0 plate was measured by adding 30 μL/well of CTG solution (CellTiter-Glo® Luminescent Cell Viability reagent, Promega G7573) to time zero wells in the reference plate followed by a 10 minutes incubation and luminescence reading at 0.1 ms. using the PHERAstar FS microplate reader (BMG Labtech).
(§8) After 72 hours incubation, the treated plates were measured in the same way as the day 0 plate mentioned above. The Bella DRC Master Sheet was used to calculate IC50s, with CI=day 0 values and C0=DMSO control values.

Another data set relates to A2780. Kind of data set: Anti-proliferative effect in A2780 cells, CellTiter-Glo (Assay 7). Type of data set: cell-based. Conditions: several values per example. Here is the method:
as §4, §5, §6, §7, §8

Setting [6] is: Homo sapiens, SU-DHL-5, 3 h, SUDHL5, 3 hours treatment, Caspase-Glo 3/7, median, read-out: Caspase SUDHL5 [M] (median).
[7] abbreviates: Homo sapiens, SU-DHL10, 3 h, SUDHL10, 3 hours treatment, Caspase-Glo 3/7, median, read-out: Caspase SUDHL10 [M] (median).
Setting [8] is: Homo sapiens, SU-DHL-5, 72 h, SUDHL5, 72 hours incubation, CellTiter-Glo, median, read-out: Antiproli SUDHL5 [M] (median).
Setting [9] is: Homo sapiens, MV4-11, 72 h, MV-4-11, 72 hours incubation, CellTiter-Glo, read-out: Antiproli MV-4-11.
Where [10] appears, read: Homo sapiens, AMO1, 72 h, AMO-1, 72 hours incubation, CellTiter-Glo; several values per example; read-out: Antiproli AMO-1.
Setting [11] is: Homo sapiens, A2780, 72 h, A2780, 72 hours incubation, CellTiter-Glo, read-out: Antiproli A2780.
The mark [12] stands for this setting: read-out: Caspase SUDHL5 [M] (median), SUDHL5, 3 hours treatment, Caspase-Glo 3/7.
[13] abbreviates: read-out: Caspase SUDHL10 [M] (median), SUDHL10, 3 hours treatment, Caspase-Glo 3/7.
Setting [14] is: read-out: Antiproli AMO-1; AMO-1, 72 hours incubation, CellTiter-Glo; several values per example.
Setting [15] is: read-out: Antiproli SUDHL5 [M] (median), SUDHL5, 72 hours incubation, CellTiter-Glo.
Where [16] appears, read: read-out: Antiproli MV-4-11, MV-4-11, 72 hours incubation, CellTiter-Glo.
Where [17] appears, read: MV-4-11, 72 hours incubation, CellTiter-Glo, read-out: Antiproli MV-4-11.
Where [18] appears, read: AMO-1, 72 hours incubation, CellTiter-Glo; several values per example; read-out: Antiproli AMO-1.
Setting [19] is: A2780, 72 hours incubation, CellTiter-Glo, read-out: Antiproli A2780.

Values joined by “and” are separate entries in the source; they are usually repeats but may differ in a detail not shown here. Equal entries are not always repeated. Structures can show the parent of a compound that is named as a salt. Where two headings read alike, the source gives them in different places.

Regarding `CCc1c2c(nn1C)COCc1ccccc1Cn1c(C(=O)O)c(CCCOc3cccc4cc(F)ccc34)c3ccc(Cl)c-2c31` (racemic) [Example 54, (rac)-3-Chloro-4-ethyl-17-{3-[(6-fluoronaphthalen-1-yl)oxy]propyl}-5-methyl-5,7,9,14-tetrahydroindolo[7,1-fg]pyrazolo[3,4-d][2,8]benzoxazacycloundecine-16-carboxylic Acid], the IC50 is 8.3e-10 M against MCL-1; 9.3e-07 M in the data set with SUDHL5 [3] (Homo sapiens, SU-DHL-5, 5 h); 2.6e-06 M in the data set on SUDHL10 [4] (Homo sapiens, SU-DHL10, 5 h); 1.4e-06 M in the data set with SUDHL5 [5] (setting [8]); 3.83e-06 M in the data set on MV-4-11 (setting [9]); 1.77 µM in the data set with AMO-1 (setting [10]). The IC50 in the data set on A2780 (setting [11]) stood at 6.59e-06 M. Also, the EC50 came to 8.4e-07 M in the data set with SUDHL5 [1] (setting [6]) and 1.8e-06 M in the data set on SUDHL10 [2] (setting [7]).
As to `CCc1nn(C)c2c1-c1c(Cl)ccc3c(CCCOc4cccc5cc(F)ccc45)c(C(=O)O)n(c13)Cc1ccccc1COC2` (racemic) [Example 57, (rac)-3-Chloro-4-ethyl-17-{3-[(6-fluoronaphthalen-1-yl)oxy]propyl}-6-methyl-6,7,9,14-tetrahydro-indolo[7,1-fg]pyrazolo[3,4-d][2,8]benzoxazacycloundecine-16-carboxylic Acid], the IC50 at MCL-1 was determined as 2.7e-09 M; in the data set with SUDHL10 [4] (Homo sapiens, SU-DHL10, 5 h) it was 4.6e-06 M; in the data set on SUDHL5 [5] (setting [8]) it was 2.4e-06 M; in the data set with MV-4-11 (setting [9]) it was 2.19e-06 M; with AMO-1 (setting [10]) it was 2.65 µM; in the data set on A2780 (setting [11]), 7.02e-06 M. Besides, the EC50 in the data set on SUDHL5 [1] (setting [6]) was 1.5e-06 M; with SUDHL10 [2] (setting [7]), 4.3e-06 M.
With `Cc1c2c(nn1C)COCc1ccccc1Cn1c(C(=O)O)c(CCCOc3cccc4cc(F)ccc34)c3ccc(F)c-2c31` (racemic) [Example 64, (rac)-15-Fluoro-1-(3-((6-fluoronaphthalen-1-yl)oxy)propyl)-13,14-dimethyl-4,9,11,13-tetrahydrobenzo[3,4]pyrazolo[4′,3′:9,10][1,6]oxaazacycloundecino[8,7,6-hi]indole-2-carboxylic Acid], the IC50 against MCL-1 is 1.5e-09 M; with SUDHL5 [3] (Homo sapiens, SU-DHL-5, 5 h), 2.2e-06 M; in the data set with SUDHL10 [4] (Homo sapiens, SU-DHL10, 5 h) it was 3.2e-06 M; with SUDHL5 [5] (setting [8]), 1.5e-06 M; with AMO-1 (setting [10]) it was 7.46 µM; with A2780 (setting [11]), 1.71e-05 M. The EC50 in the data set on SUDHL5 [1] (setting [6]) came to 1.7e-06 M; in the data set with SUDHL10 [2] (setting [7]) it was 6e-06 M.
For the compound `Cc1c2c(nn1C)CN(S(=O)(=O)CCN1CCOCC1)Cc1ccccc1Cn1c(C(=O)O)c(CCCOc3cccc4ccccc34)c3cccc-2c31` (single isomer, unassigned; enantiomer 1) [Example 31, (+)-4,5-Dimethyl-8-[2-(morpholin-4-yl)ethanesulfonyl]-17-{3-[(naphthalen-1-yl)oxy]propyl}-7,8,9,14-tetrahydro-5H-indolo[1,7-bc]pyrazolo[4,3-e][2,8]benzodiazacycloundecine-16-carboxylic acid-N-ethylethanamine Salt (Enantiomer 1)], the IC50 against MCL-1 was 1.3e-08 M; in the data set on SUDHL5 [3], 5.3e-06 M; in the data set with SUDHL10 [4], above 7.8e-05 M; in the data set on SUDHL5 [5] (Homo sapiens, SU-DHL-5, 72 h, read-out: Antiproli SUDHL5 [M] (median), SUDHL5, 72 hours incubation, CellTiter-Glo), 4.8e-06 M; in the data set with MV-4-11 (Homo sapiens, MV4-11, 72 h, read-out: Antiproli MV-4-11 [M], MV-4-11, 72 hours incubation, CellTiter-Glo), 5.49e-06 M; in the data set with AMO-1 (setting [14]) it was 5.93 µM. Besides, the IC50 in the data set on A2780 (Homo sapiens, A2780, 72 h, read-out: Antiproli A2780 [M], A2780, 72 hours incubation, CellTiter-Glo) was 6.72e-06 M. For the same compound, the EC50 in the data set on SUDHL5 [1] (setting [12]) came to 5.2e-06 M; in the data set on SUDHL10 [2] (setting [13]), 9.7e-06 M.
In the case of `Cc1c2c(nn1C)COCc1ccccc1Cn1c(C(=O)O)c(CCCOc3cccc4cc(F)ccc34)c3ccc(F)c-2c31` (single isomer, unassigned; enantiomer 2) [Example 66, (+)-3-Fluoro-17-{3-[(6-fluoronaphthalen-1-yl)oxy]propyl}-4,5-dimethyl-5,7,9,14-tetrahydroindolo[7,1-fg]pyrazolo[3,4-d][2,8]benzoxazacycloundecine-16-carboxylic acid-N-ethylethanamine Salt (Enantiomer 2)], the IC50 against MCL-1 was 6.2e-09 M; in the data set on SUDHL5 [3] it was 4.1e-06 M; in the data set with SUDHL10 [4], 8.6e-06 M; in the data set with SUDHL5 [5] (setting [15]) it was 3.6e-06 M; in the data set on AMO-1 (setting [14]), 7.13 µM and 7.07 µM; in the data set on A2780 (read-out: Antiproli A2780, A2780, 72 hours incubation, CellTiter-Glo) it was above 3.3e-05 M. Further, the EC50 in the data set on SUDHL5 [1] (setting [12]) was found to be 3.3e-06 M; with SUDHL10 [2] (setting [13]), 1.2e-05 M.
Turning to `Cc1c2c(nn1C)COCc1ccccc1Cn1c(C(=O)O)c(CCCOc3cccc4ccccc34)c3ccc(F)c-2c31` (single isomer, unassigned; enantiomer 2) [Example 69, (+)-3-Fluoro-4,5-dimethyl-17-{3-[(naphthalen-1-yl)oxy]propyl}-5,7,9,14-tetrahydroindolo[7,1-fg]pyrazolo[3,4-d][2,8]benzoxazacycloundecine-16-carboxylic acid-N-ethylethanamine Salt (Enantiomer 2)], the IC50 at MCL-1 was 2.1e-08 M; in the data set with SUDHL5 [3], 1.4e-05 M; in the data set with SUDHL10 [4] it was above 3.3e-05 M; in the data set on SUDHL5 [5] (setting [15]), 1.2e-05 M; in the data set with MV-4-11 (setting [16]), 1.51e-05 M; in the data set on AMO-1 (setting [14]), 26 µM. Moreover, the EC50 in the data set on SUDHL5 [1] (setting [12]) is 1.3e-05 M; in the data set on SUDHL10 [2] (setting [13]), above 3.3e-05 M.
In the case of `CCc1c2c(nn1C)COCc1ccccc1Cn1c(C(=O)O)c(CCCOc3cccc4cc(F)ccc34)c3ccc(F)c-2c31` (single isomer, unassigned; enantiomer 2) [Example 75, (+)-4-Ethyl-3-fluoro-17-{3-[(6-fluoronaphthalen-1-yl)oxy]propyl}-5-methyl-5,7,9,14-tetrahydro-indolo[7,1-fg]pyrazolo[3,4-d][2,8]benzoxazacycloundecine-16-carboxylic acid-N-ethylethanamine Salt (Enantiomer 2)], the IC50 at MCL-1 came out at 3e-09 M; with SUDHL5 [3], 5.2e-06 M; with SUDHL10 [4] it was 1e-05 M; in the data set on SUDHL5 [5] (setting [15]) it was 5.8e-06 M; with MV-4-11 (setting [16]), 1.64e-05 M; in the data set with AMO-1 (setting [14]) it was 12.5 µM. For the same compound, the figures for the EC50 with SUDHL5 [1] (setting [12]) and with SUDHL10 [2] (setting [13]) were 4.4e-06 M and 1.5e-05 M, respectively.
As for `Cc1c2c(nn1C)COCc1cccnc1Cn1c(C(=O)O)c(CCCOc3cccc4ccccc34)c3cccc-2c31` [Example 05], the IC50 worked out at 5.48e-06 M in the data set with MV-4-11 (setting [17]), 8.78 µM with AMO-1 (setting [18]) and 6.65e-06 M in the data set with A2780 (setting [19]).
As to `Cc1c2c(nn1C)COCc1cccnc1Cn1c(C(=O)O)c(CCCOc3cccc4ccccc34)c3cccc-2c31` [Example 06], the values for the IC50 with MV-4-11 (setting [17]), in the data set with AMO-1 (setting [18]) and in the data set with A2780 (setting [19]) were 5.38e-06 M, 19.9 µM and 8.66e-06 M, respectively.
